# Data from patent US8247211B2, “Glycopeptide antibiotics” (American Cyanamid Company, priority 2001, dated 2012).
# Legend:
# Assay in all cases: In vitro antibacterial evaluation: minimum inhibitory concentration (MIC), broth dilution method
# Format in all cases: cell-based
# [1] = tested on: Streptococcus sp.; settings: broth dilution, 5×10^5 CFU/mL, 18 hours at 35° C.
# Procedure: (§1) The minimum inhibitory concentration (MIC), the lowest concentration of the antibiotic which inhibits growth of the test organism, is determined by the broth dilution method using Muller-Hinton II […] (Baltimore Biological Laboratories) following the recommendations of the National Committee for Clinical Laboratory Standards [Methods for dilution antimicrobial susceptibility tests for bacteria that grow aerobically, approved standard M7-A2, National Committee for Clinical Laboratory Standards, Villanova, Pa].
# (§2) An inoculum level of 5×10^5 CFU/mL, and a range of antibiotic concentrations (64-0.06 μg/mL) is used. […] The test organisms include a spectrum of Gram-positive bacteria comprised of Staphylococcus sp., Streptococcus sp. and Enterococcus sp. These organisms include recent clinical isolates that are resistant to methicillin, penicillin and/or vancomycin.
# [2] = tested on: Enterococcus sp.; settings: broth dilution, 5×10^5 CFU/mL, 18 hours at 35° C.
# Procedure: as §1, §2
# [3] = tested on: Escherichia coli; settings: 5×10^5 CFU/mL, 18 hours at 35° C.
# Procedure: as §1, §2
# [4] = tested on: Staphylococcus sp.; settings: for MIC Staphylococcus aureus (ATCC 29213): strain ATCC 29213; for MIC Staphylococcus aureus (GC 1131): strain GC 1131; for MIC Staphylococcus aureus (GC 3051): strain GC 3051; for MIC Staphylococcus aureus (GC 3053): strain GC 3053; for MIC Staphylococcus aureus (GC 4541): strain GC 4541; for MIC Staphylococcus aureus (GC 4542): strain GC 4542; for MIC Staphylococcus aureus-SMITH (GC 4543): strain GC 4543; for MIC Staphylococcus aureus (GC 4544): strain GC 4544; for MIC Staphylococcus aureus (GC 4545): strain GC 4545; for MIC Staphylococcus haemolyticus (GC 4546): strain GC 4546; for MIC Coagulase Negative Staphylococcus (GC 4547): strain GC 4547; for MIC Coagulase Negative Staphylococcus (GC 4548): strain GC 4548; for MIC Coagulase Negative Staphylococcus (GC 4549): strain GC 4549; for MIC Coagulase Negative Staphylococcus (GC 4551): strain GC 4551; for MIC Coagulase Negative Staphylococcus (GC 6257): strain GC 6257
# Procedure: as §1, §2
# [5] = broth dilution, 18 hours at 35° C.
compound,measurement,setting,value
"CC(C)=CCCC1OCC2OC(OC3C(CO)OC(Oc4ccc(CC5NC(=O)C(C(C)c6ccccc6)NC(=O)CNC(=O)C(CO)NC(=O)C(C(O)C6CNC(=N)N6C6OC(CO)C(O)C(O)C6O)NC(=O)C(C(O)C6CNC(=N)N6)NC5=O)cc4)C(O)C3O)C(O)C(O)C2O1 (stereo not drawn) [Example 123, Cyclo[glycyl-β-methylphenylalanyl-O-[4-O-[4,6-O-[5-methylhex-4-en-1-ylidene)hexopyranosyl]hexopyranosyl]tyrosyl-3-[2-iminoimidazolidin-4-yl)seryl-3-(3-hexopyranosyl-2-iminoimidazolidin-4-yl)serylseryl]]",MIC Streptococcus agalactiae (GC 4564),[1],2 µg/mL
same,MIC Streptococcus pneumoniae (GC 1894),[1],1 µg/mL
same,MIC Streptococcus pneumoniae (GC 4565),[1],2 µg/mL
same,MIC Streptococcus pneumonine (ATCC 6301),[1],1 µg/mL
same,MIC Streptococcus pyogenes (GC 4563),[1],0.5 µg/mL
same,MIC Enterococccus avium (GC 4558),[2],16 µg/mL
same,MIC Enterococccus faecalis (ATCC 29212),[2],8 µg/mL
same,MIC Enterococccus faecalis (GC 2691),[2],16 µg/mL
same,MIC Enterococccus faecalis (GC 3059),[2],16 µg/mL
same,MIC Enterococccus faecalis (GC 4552),[2],8 µg/mL
same,MIC Enterococccus faecalis (GC 4553),[2],16 µg/mL
same,MIC Enterococccus faecalis (GC 4554),[2],16 µg/mL
same,MIC Enterococccus faecalis (GC 6189),[2],8 µg/mL
same,MIC Enterococccus faecium (GC 2243),[2],8 µg/mL
same,MIC Enterococccus faecium (GC 4556),[2],8 µg/mL
same,MIC Enterococccus faecium (GC 4557),[2],8 µg/mL
same,MIC Enterococcus faecalis (GC 2242),[2],8 µg/mL
same,MIC Escherichia coli (ATCC 25922),[3],>64 µg/mL
same,MIC Escherichia coli (GC 4559),[3],>64 µg/mL
same,MIC Escherichia coli (GC 4560),[3],8 µg/mL
same,MIC Staphylococcus aureus (ATCC 29213),[4],8 µg/mL
same,MIC Staphylococcus aureus (ATCC 29213),[4]; [5],8 µg/mL
same,MIC Staphylococcus aureus (GC 1131),[4],8 µg/mL
same,MIC Staphylococcus aureus (GC 1131),[4]; [5],8 µg/mL
same,MIC Staphylococcus aureus (GC 3051),[4],8 µg/mL
same,MIC Staphylococcus aureus (GC 3051),[4]; [5],8 µg/mL
same,MIC Staphylococcus aureus (GC 3053),[4],8 µg/mL
same,MIC Staphylococcus aureus (GC 3053),[4]; [5],8 µg/mL
same,MIC Staphylococcus aureus (GC 4541),[4],4 µg/mL
same,MIC Staphylococcus aureus (GC 4541),[4]; [5],4 µg/mL
same,MIC Staphylococcus aureus (GC 4542),[4],4 µg/mL
same,MIC Staphylococcus aureus (GC 4542),[4]; [5],4 µg/mL
same,MIC Staphylococcus aureus-SMITH (GC 4543),[4]; 18 hours at 35° C.,4 µg/mL
same,MIC Staphylococcus aureus-SMITH (GC 4543),[4]; [5],4 µg/mL
same,MIC Staphylococcus aureus (GC 4544),[4],8 µg/mL
same,MIC Staphylococcus aureus (GC 4544),[4]; [5],8 µg/mL
same,MIC Staphylococcus aureus (GC 4545),[4],8 µg/mL
same,MIC Staphylococcus aureus (GC 4545),[4]; [5],8 µg/mL
same,MIC Staphylococcus haemolyticus (GC 4546),[4],8 µg/mL
same,MIC Staphylococcus haemolyticus (GC 4546),[4]; [5],8 µg/mL
same,MIC Coagulase Negative Staphylococcus (GC 4547),[4],8 µg/mL
same,MIC Coagulase Negative Staphylococcus (GC 4547),[4]; [5],8 µg/mL
same,MIC Coagulase Negative Staphylococcus (GC 4548),[4],4 µg/mL
same,MIC Coagulase Negative Staphylococcus (GC 4548),[4]; [5],4 µg/mL
same,MIC Coagulase Negative Staphylococcus (GC 4549),[4],4 µg/mL
same,MIC Coagulase Negative Staphylococcus (GC 4549),[4]; [5],4 µg/mL
same,MIC Coagulase Negative Staphylococcus (GC 4551),[4],8 µg/mL
same,MIC Coagulase Negative Staphylococcus (GC 4551),[4]; [5],8 µg/mL
same,MIC Coagulase Negative Staphylococcus (GC 6257),[4],4 µg/mL
same,MIC Coagulase Negative Staphylococcus (GC 6257),[4]; [5],4 µg/mL
